The supplement of paper PMC10307832

Legend:
Assay in all cases: relative viability (nuclei count vs DMSO), 5 days (fraction); higher = more cells survive
[1] = compound: CN1CCC(CNc2ccc3ncc(-c4cccc(OC(F)(F)F)c4)n3n2)CC1 [SGI-1776] + COc1cc2c(Oc3ccc(NC(=O)C4(C(=O)Nc5ccc(F)cc5)CC4)cc3F)ccnc2cc1OCCCN1CCOCC1 [Foretinib] (partner 0.25 µM)
Summary of the method: (§1)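 For relative viability, nuclei counts in treated wells were divided by those in vehicle wells. Lung cancer cell lines had been pin-tool dosed in 1536-well plates the day after seeding and cultured for 5 days, then fixed and stained in one step (final 0.05% Triton X-100, 1% formaldehyde, 1 ug/ml Hoechst) and imaged at 4×. Doses were one drug alone or a fixed anchor-drug dose plus five library-drug doses (not always all listed) in √10 steps, and values are duplicate-plate medians.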

[2] = compound: Nc1ccccc1NC(=O)c1ccc(CNC(=O)OCc2cccnc2)cc1 [Entinostat] + Nc1nc2[nH]cc(CCc3ccc(C(=O)N[C@@H](CCC(=O)O)C(=O)O)cc3)c2c(=O)[nH]1 [Pemetrexed] (partner 0.2 µM)
Summary of the method: as §1

[3] = compound: CN1CCC(CNc2ccc3ncc(-c4cccc(OC(F)(F)F)c4)n3n2)CC1 [SGI-1776] + Nc1nc2[nH]cc(CCc3ccc(C(=O)N[C@@H](CCC(=O)O)C(=O)O)cc3)c2c(=O)[nH]1 [Pemetrexed] (partner 0.2 µM)
Summary of the method: as §1

[4] = compound: C1COCCN1C2=NC(=NC3=C2OC4=C3C=CC=N4)C5=CC(=CC=C5)NC(=O)C6=CN=C(C=C6)N + CCNC(=O)c1noc(-c2cc(C(C)C)c(O)cc2O)c1-c1ccc(CN2CCOCC2)cc1 [Luminespib] (partner 0.01 µM)
Summary of the method: as §1

UMC-11
relative viability ([1]; first compound 0.08 µM): 1.02
relative viability ([1]; first compound 0.8 µM): 1.03
relative viability ([1]; first compound 2.53 µM): 1.08
relative viability ([1]; first compound 8 µM): 0.791
relative viability ([2]; first compound 0.02 µM): 0.733
relative viability ([2]; first compound 0.06325 µM): 0.738
relative viability ([2]; first compound 0.2 µM): 0.5
relative viability ([2]; first compound 0.6325 µM): 0.346
relative viability ([2]; first compound 2 µM): 0.145
relative viability ([3]; first compound 0.08 µM): 0.828
relative viability ([3]; first compound 0.8 µM): 0.864
relative viability ([3]; first compound 2.53 µM): 0.699
relative viability ([3]; first compound 8 µM): 0.558
relative viability ([4]; first compound 0.02 µM): 1.13
relative viability ([4]; first compound 0.06325 µM): 1.07
relative viability ([4]; first compound 0.2 µM): 1.02
relative viability ([4]; first compound 0.6325 µM): 1.07
relative viability ([4]; first compound 2 µM): 0.628
